In brackets after ≈: the same amount, converted by molar mass.
Tests used:
Nematode J2 = test: Plant pathogenic nematode inhibition test by dipping: second-stage juveniles; assay type: in vivo
Edaphon = Edaphon toxicity test (Test Guidelines on Environmental Safety Assessment for Chemical Pesticides); settings: 15 d; 100 times of usual dose (simulative usual dose 40 ppm); cell adds 'low toxicity'
Description: (§1) According to the earthworm and edaphon toxicity test procedures as prescribed in the Test Guidelines on Environmental Safety Assessment for Chemical Pesticides, earthworm and edaphon toxicity tests are conducted on compounds 1 to 60 from Table 1. The simulative usual dose of pesticide in the edaphon test is 40 ppm.

Earthworm = Earthworm toxicity test (Test Guidelines on Environmental Safety Assessment for Chemical Pesticides); assay type: in vivo; settings: cell adds 'low toxicity'
Description: as §1

Nematode eggs = test: Plant pathogenic nematode inhibition test by dipping: nematode egg hatch inhibition (NY/T 1154.5-2006); assay type: in vivo
Description: A plant pathogenic nematode inhibition test is conducted by dipping with the compounds in Table 1; and by referring to NY/T 1154.5-2006 (Part 5: Dipping Test for Insecticide Ovicidal Activity), the nematode egg hatch inhibition activity of the compounds is tested, as shown in Table 2: […]

[1] = Test object: nematode J2 (second-stage juveniles), dipping
[2] = Test object: nematode eggs, dipping

SMILES	LC50 (Nematode J2; in vivo) [mg/L]	Edaphon Toxicity (15 d) (Inhibition ratio when added amount is 100 times of usual dose) (Edaphon)	Earthworm Toxicity LC50 (14 d) (Earthworm)	LC50 (Nematode eggs; in vivo) [mg/L]	LC50 (Nematode J2; [1]) [mg/L]	LC50 (Nematode eggs; [2]) [mg/L]
O=C1CC(C(=O)OCCC(F)=C(F)F)C(c2cc(F)ccc2F)O1 (stereo not drawn) [Compound 28]	15.07 (≈ 43 µM)	<50%, low toxicity	>10, low toxicity mg/L	13.23 (≈ 37.8 µM)	–	–
O=C1CC(C(=O)OCCC(F)=C(F)F)C(c2c(F)cccc2Cl)O1 (stereo not drawn) [Compound 16]	12.25 (≈ 33.4 µM)	<50%, low toxicity	>10, low toxicity mg/L	10.91 (≈ 29.8 µM)	–	–
COc1ccccc1C1OC(=O)CC1C(=O)OCCC=C(F)F (stereo not drawn) [Compound 34]	–	<50%, low toxicity	>10, low toxicity mg/L	–	13.10 (≈ 40.1 µM)	12.42 (≈ 38.1 µM)
O=C1CC(C(=O)OCCC(F)=C(F)F)C(c2ccc(OCc3ccc(F)cc3)cc2)O1 (stereo not drawn) [Compound 56]	13.47 (≈ 30.7 µM)	<50%, low toxicity	>10, low toxicity mg/L	11.56 (≈ 26.4 µM)	–	–
O=C1CC(C(=O)OCCC(F)=C(F)F)C(c2ccc(F)cc2)O1 (stereo not drawn) [Compound 20]	12.532 (≈ 37.7 µM)	<50%, low toxicity	>10, low toxicity mg/L	10.143 (≈ 30.5 µM)	–	–
CCc1ccc(C2OC(=O)CC2C(=O)OCCC=C(F)F)cc1 (stereo not drawn) [Compound 4]	10.24 (≈ 31.6 µM)	<50%, low toxicity	>10, low toxicity mg/L	10.25 (≈ 31.6 µM)	–	–
Cc1ccccc1C1OC(=O)CC1C(=O)OCCC=C(F)F (stereo not drawn) [Compound 2]	10.14 (≈ 32.7 µM)	<50%, low toxicity	>10, low toxicity mg/L	9.81 (≈ 31.6 µM)	–	–
O=C1CC(C(=O)OCCC(F)=C(F)F)C(c2c(Cl)cccc2Cl)O1 (stereo not drawn) [Compound 11]	14.95 (≈ 39 µM)	<50%, low toxicity	>10, low toxicity mg/L	13.30 (≈ 34.7 µM)	–	–
O=C1CC(C(=O)OCCC=C(F)F)C(c2ccccc2C(F)(F)F)O1 (stereo not drawn) [Compound 45]	12.35 (≈ 33.9 µM)	<50%, low toxicity	>10, low toxicity mg/L	10.14 (≈ 27.8 µM)	–	–
CCOc1ccccc1C1OC(=O)CC1C(=O)OCCC(F)=C(F)F (stereo not drawn) [Compound 43]	13.35 (≈ 37.3 µM)	<50%, low toxicity	>10, low toxicity mg/L	11.98 (≈ 33.4 µM)	–	–
O=C1CC(C(=O)OCCC=C(F)F)C(c2ccccc2OC(F)(F)F)O1 (stereo not drawn) [Compound 40]	13.40 (≈ 35.2 µM)	<50%, low toxicity	>10, low toxicity mg/L	10.04 (≈ 26.4 µM)	–	–
O=C1CC(C(=O)OCCC(F)=C(F)F)C(c2ccc(Cl)cc2)O1 (stereo not drawn) [Compound 15]	12.69 (≈ 36.4 µM)	<50%, low toxicity	>10, low toxicity mg/L	11.88 (≈ 34.1 µM)	–	–
COc1ccc(C2OC(=O)CC2C(=O)OCCC=C(F)F)cc1 (stereo not drawn) [Compound 38]	13.40 (≈ 41.1 µM)	<50%, low toxicity	>10, low toxicity mg/L	12.14 (≈ 37.2 µM)	–	–
N#Cc1ccc(C2OC(=O)CC2C(=O)OCCC(F)=C(F)F)cc1 (stereo not drawn) [Compound 49]	11.35 (≈ 33.5 µM)	<50%, low toxicity	>10, low toxicity mg/L	10.36 (≈ 30.5 µM)	–	–
O=C1CC(C(=O)OCCC(F)=C(F)F)C(c2ccc(Br)cc2F)O1 (stereo not drawn) [Compound 25]	–	<50%, low toxicity	>10, low toxicity mg/L	–	15.74 (≈ 38.3 µM)	13.91 (≈ 33.8 µM)
COc1ccccc1C1OC(=O)CC1C(=O)OCCC(F)=C(F)F (stereo not drawn) [Compound 35]	11.67 (≈ 33.9 µM)	<50%, low toxicity	>10, low toxicity mg/L	10.84 (≈ 31.5 µM)	–	–
O=C1CC(C(=O)OCCC(F)=C(F)F)C(c2cccc(Cl)c2Cl)O1 (stereo not drawn) [Compound 8]	13.14 (≈ 34.3 µM)	<50%, low toxicity	>10, low toxicity mg/L	12.81 (≈ 33.4 µM)	–	–
O=C1CC(C(=O)OCCC(F)=C(F)F)C(c2ccccc2OC(F)(F)F)O1 (stereo not drawn) [Compound 41]	13.86 (≈ 34.8 µM)	<50%, low toxicity	>10, low toxicity mg/L	11.41 (≈ 28.6 µM)	–	–
O=C1CC(C(=O)OCCC(F)=C(F)F)C(c2cc(Br)cc(Br)c2)O1 (stereo not drawn) [Compound 18]	12.47 (≈ 26.4 µM)	<50%, low toxicity	>10, low toxicity mg/L	10.23 (≈ 21.7 µM)	–	–
O=C1CC(C(=O)OCCC(F)=C(F)F)C(c2c(F)cccc2C(F)(F)F)O1 (stereo not drawn) [Compound 31]	10.07 (≈ 25.2 µM)	<50%, low toxicity	>10, low toxicity mg/L	9.60 (≈ 24 µM)	–	–
CCOc1ccc(C2OC(=O)CC2C(=O)OCCC(F)=C(F)F)cc1 (stereo not drawn) [Compound 44]	13.12 (≈ 36.6 µM)	<50%, low toxicity	>10, low toxicity mg/L	10.23 (≈ 28.6 µM)	–	–
O=C1CC(C(=O)OCCC(F)=C(F)F)C(c2ccccc2F)O1 (stereo not drawn) [Compound 19]	17.24 (≈ 51.9 µM)	<50%, low toxicity	>10, low toxicity mg/L	15.21 (≈ 45.8 µM)	–	–
O=C1CC(C(=O)OCCC(F)=C(F)F)C(c2cc(F)c(F)c(F)c2)O1 (stereo not drawn) [Compound 30]	10.96 (≈ 29.8 µM)	<50%, low toxicity	>10, low toxicity mg/L	9.73 (≈ 26.4 µM)	–	–
COc1ccc(C2OC(=O)CC2C(=O)OCCC(F)=C(F)F)c(C(F)(F)F)c1 (stereo not drawn) [Compound 42]	10.40 (≈ 25.2 µM)	<50%, low toxicity	>10, low toxicity mg/L	12.39 (≈ 30.1 µM)	–	–
O=C1CC(C(=O)OCCC(F)=C(F)F)C(c2cccc(Oc3cccc(C(F)(F)F)c3)c2)O1 (stereo not drawn) [Compound 52]	13.28 (≈ 28 µM)	<50%, low toxicity	>10, low toxicity mg/L	10.12 (≈ 21.3 µM)	–	–
O=C1CC(C(=O)OCCC(F)=C(F)F)C(c2cc(F)cc(Br)c2)O1 (stereo not drawn) [Compound 22]	10.85 (≈ 26.4 µM)	<50%, low toxicity	>10, low toxicity mg/L	9.57 (≈ 23.3 µM)	–	–
O=C1CC(C(=O)OCCC(F)=C(F)F)C(c2ccc(F)c(Cl)c2)O1 (stereo not drawn) [Compound 23]	11.24 (≈ 30.7 µM)	<50%, low toxicity	>10, low toxicity mg/L	10.23 (≈ 27.9 µM)	–	–
CCCc1ccc(C2OC(=O)CC2C(=O)OCCC(F)=C(F)F)cc1 (stereo not drawn) [Compound 5]	9.777 (≈ 27.4 µM)	<50%, low toxicity	>10, low toxicity mg/L	8.02 (≈ 22.5 µM)	–	–
Nc1ccccc1C1OC(=O)CC1C(=O)OCCC(F)=C(F)F (stereo not drawn) [Compound 59]	13.24 (≈ 40.2 µM)	<50%, low toxicity	>10, low toxicity mg/L	11.24 (≈ 34.1 µM)	–	–
O=C1CC(C(=O)OCCC(F)=C(F)F)C(c2cc(C(F)(F)F)cc(C(F)(F)F)c2)O1 (stereo not drawn) [Compound 48]	13.27 (≈ 29.5 µM)	<50%, low toxicity	>10, low toxicity mg/L	12.25 (≈ 27.2 µM)	–	–

Reference: patent US10111428B2, “Nematocide containing lactonic ring and preparation method and application thereof” (priority 2015, dated 2018)
